From patent US20240148821A1, “PHARMACEUTICAL USE OF CYCLIC PEPTIDE COMPOUND” (CHUGAI SEIYAKU KABUSHIKI KAISHA, priority 2021, published 2024)
Like-named read-outs stand apart in the source and are kept apart here. Bridge positions count the residues as written; N and C are the ends. Square brackets hold non-standard residues; d marks the D form. Peptide text beside a SMILES is read from it. hPhe(3,5-F2-4-CF3) = N[C@@H](CCc1cc(F)c(C(F)(F)F)c(F)c1)C(=O)O; NEtPhe(4-Me) = CCN[C@@H](Cc1ccc(C)cc1)C(=O)O; NMeGly(cPent) = CN[C@H](C(=O)O)C1CCCC1; NMeD = CN[C@@H](CC(=O)O)C(=O)O; NMeL = CN[C@@H](CC(C)C)C(=O)O; NMeA = CN[C@@H](C)C(=O)O; Ac5c = NC1(C(=O)O)CCCC1; Aze = O=C(O)[C@@H]1CCN1; Sar = CNCC(=O)O

Experiments:
[1] = tested on: pancreatic cancer cell line MIA PaCa-2; conditions: MIA PaCa-2 (Pancreas) xenograft, 14 days
Procedure: (§2) Each type of cell line was subcutaneously grafted into nude mice, which were randomized after tumor size reached 200 to 300 mm^3, and compound administration (once daily) was initiated (Day 0). The solvents used to dissolve the compounds were DMSO and Cremophor EL. […] From the tumor volume data on the last measurement day, the tumor growth inhibition rate (TGI %: Tumor Growth Inhibition %) was calculated using the following expressions.
(§3) tumor volume (mm^3):½×long diameter (mm)×short diameter (mm)×short diameter (mm)
(§4) amount of change in tumor volume (mm^3)=tumor volume after Day 0−tumor volume at Day 0 • TV: average value of amount of change in tumor volume in administered group • CV: average value of amount of change in tumor volume in non-administered group

[2] = tested on: various cancer cell lines (Ras mutation or amplification); experiment: Measurement of cell growth inhibitory activity against various cancer cell lines (CellTiter-Glo); format: cell-based, human
Procedure: Various cancer cell lines used were purchased from commercial suppliers. […] The cell suspension and culture medium supplemented with serum were dispensed to a plate containing the test compounds at 40 μL (384 well plate) or 200 μL (96 well plate) per well and incubated in a carbon dioxide gas incubator. […] Six days or seven days after the start of cultivation, 20 μL of CellTiter-Glo (Promega) was added to each well and fluorescence was measured.

[3] = tested on: large bowel carcinoma cell line LS 180; experiment: In vivo antitumor activity, mouse xenograft model, LS 180; conditions: LS 180 (Colon) xenograft, 7 days
Text: (§1) Tumor growth inhibition rate (TGI %)=(1−TV/CV)×100

[4] = tested on: Human pancreatic cancer cell line AsPC-1 (G12D mutation Kras); experiment: AsPC-1 cell growth inhibition (AsPC-1 CGI); format: cell-based; conditions: read-out: AsPC-1 cell growth inhibition, 50% growth inhibitory concentration (IC50 value); 96 hours, CellTiter-Glo, values classified in ranges
Procedure: Test compounds were serially dilated with dimethyl sulfoxide, and 200 nL was then dispensed to a U-bottom 96-well plate using Labcyte Echo. […] The cell suspension was dispensed to a. plate containing a test compound at 100 μL per well and incubated at 37° C. in a 5% carbon dioxide gas incubator. 96 hours later, 80 μL of CellTiter-Glo (Promega) was added to each well and fluorescence was measured.

[5] = tested on: gastric cancer cell line MKN-1 with an amplified copy number of the KRAS gene; conditions: MKN1 (Stomach) xenograft, 10 days
Procedure: as §2, §3, §4

[6] = tested on: large bowel carcinoma cell line LoVo; conditions: LoVo (Colon) xenograft, 10 mg/kg once daily, 10 days
Procedure: as §2, §3, §4

[7] = tested on: non-small cell lung cancer cell line NC1-1441 with a KRAS mutation; experiment: In vivo antitumor activity, mouse xenograft model, NCI-H441; conditions: NCI-H441 (NSCLC) xenograft, 14 days
Text: as §1

[8] = tested on: pancreatic cancer cell line KP4; conditions: KP4 (Pancreas) xenograft, 10 days
Procedure: as §2, §3, §4

Question: Which results are given for `CC[C@H](C)[C@@H]1NC(=O)[C@H](CC(C)C)N(C)C(=O)C[C@@H](C(=O)N(C)C)N(C)C(=O)[C@H](C2CCCC2)N(C)C(=O)C2(CCCC2)NC(=O)[C@@H]2CCCN2C(=O)[C@H](CCc2cc(F)c(C(F)(F)F)c(F)c2)NC(=O)CN(C)C(=O)[C@H](Cc2ccc(C)cc2)N(CC)C(=O)[C@@H]2CCN2C(=O)[C@H](C)N(C)C1=O` [Compound 1217, (5S,8S,11S,15S,18S,23aS,29S,35S,37aS)-8-((S)-sec-butyl)-18-cyclopentyl-29-(3,5-difluoro-4-(trifluoromethyl)phenethyl)-36-ethyl-1l-isobutyl-N,N,5,6,12,16,19,33-octamethyl-35-(4-methylbenzyl)-4,7,10,13,17,20,23,28,31,34,37-undecaoxotetratriacontahydro-2H,4H-spiro[azeto[2,1-u]pyrrolo[2,1-i][1,4,7,10,13,16,19,22,25,28,31]undecaazacyclotetratriacontine-21,1′-cyclopentane]-15-carboxamide] ([NMeL]I[NMeA][Aze][NEtPhe(4-Me)][Sar][hPhe(3,5-F2-4-CF3)]P[Ac5c][NMeGly(cPent)][NMeD]-NMe2; lactam N-11)?
Answer: TGI (%) ([1]; 3 mg/kg once daily): 16%; TGI (%) ([1]; 5 mg/kg once daily): 65%; TGI (%) ([1]; 10 mg/kg once daily): 149%; IC50 ([2]; A549, NSCLC, KRAS G12S): 0.3 nM; IC50 ([2]; AGS, Stomach, KRAS G12D): 0.32 nM; IC50 ([2]; AML-193, AML, NRAS G13V): 11.8 nM; IC50 ([2]; AsPC-1, Pancreas, KRAS G12D): 0.87 nM; IC50 ([2]; C-643, Thyroid, HRAS G13R): 3.24 nM; IC50 ([2]; CFPAC-1, Pancreas, KRAS G12V): 17.3 nM; IC50 ([2]; COR-L23, NSCLC, KRAS Amp (G12V)): 2.85 nM; IC50 ([2]; Calu-6, NSCLC, KRAS Q61K): 43.7 nM; IC50 ([2]; DLD-1, Colon, KRAS G13D): 5.08 nM; IC50 ([2]; DMS 53, SCLC, KRAS Amp): 12.2 nM; IC50 ([2]; FAMPAC, Pancreas, KRAS G12V): 2.09 nM; IC50 ([2]; HCC-44, NSCLC, KRAS G12C): 0.55 nM; IC50 ([2]; HCC-1171, NSCLC, KRAS G12C): 4.86 nM; IC50 ([2]; HCT-116, Colon, KRAS G13D): 8.58 nM; IC50 ([2]; HEC-50B, Endometrium, KRAS G12D): 43.8 nM; IC50 ([2]; HEC-151, Endometrium, NRAS G12D): 2.42 nM; IC50 ([2]; HLG-1, NSCLC, KRAS G12V): 3.29 nM; IC50 ([2]; HPAC, Pancreas, KRAS G12D): 2.19 nM; IC50 ([2]; HuG1-N, Stomach, KRAS Amp): 3.74 nM; IC50 ([2]; IPC-298, Skin, NRAS Q61L): 23.5 nM; IC50 ([2]; KE-39, Stomach, KRAS Amp): 0.8 nM; IC50 ([2]; KLE, Endometrium, KRAS Amp): 170 nM; IC50 ([2]; KMM-1, Myeloma, NRAS G13D): 8.59 nM; IC50 ([2]; KP4, Pancreas, KRAS G12D): 3.3 nM; IC50 ([2]; KURAMOCHI, Ovary, KRAS Amp): 1.18 nM; IC50 ([2]; LS 174T, Colon, KRAS G12D): 4.31 nM; IC50 ([2]; LS 180, Colon, KRAS G12D): 0.83 nM; IC50 ([2]; LS513, Colon, KRAS G12D): 3.69 nM; IC50 ([2]; LoVo, Colon, KRAS G13D): 5.5 nM; IC50 ([2]; MIA PaCa-2, Pancreas, KRAS G12C): 1.45 nM; IC50 ([2]; MKN-1, Stomach, KRAS Amp): 1.77 nM; IC50 ([2]; MOLT-4, ALL, NRAS G12C): 175 nM; IC50 ([2]; NCI-H23, NSCLC, KRAS G12C): 3.92 nM; IC50 ([2]; NCI-H358, NSCLC, KRAS G12C): 1.55 nM; IC50 ([2]; NCI-H441, NSCLC, KRAS G12V): 1.12 nM; IC50 ([2]; NCI-H460, NSCLC, KRAS Q61H): 4.2 nM; IC50 ([2]; NCI-H929, Myeloma, NRAS G13D): 9.79 nM; IC50 ([2]; NCI-H1373, NSCLC, KRAS G12C): 2.33 nM; IC50 ([2]; NCI-H1385, NSCLC, KRAS G12C): 14.3 nM; IC50 ([2]; NCI-H1792, NSCLC, KRAS G12C): 0.86 nM; IC50 ([2]; NCI-H1944, NSCLC, KRAS G13D): 2.53 nM; IC50 ([2]; NCI-H2009, NSCLC, KRAS G12A): 2.35 nM; IC50 ([2]; NCI-H2030, NSCLC, KRAS G12C): 4.05 nM; IC50 ([2]; NCI-H2122, NSCLC, KRAS G12C): 0.8 nM; IC50 ([2]; NOMO-1, AML, KRAS G13D): 6.5 nM; IC50 ([2]; PA-1, Ovary, NRAS G12D): 2.38 nM; IC50 ([2]; PANC-1, Pancreas, KRAS G12D): 44.3 nM; IC50 ([2]; RERF-LC-Ad2, NSCLC, KRAS G12V): 5.2 nM; IC50 ([2]; SK-CO-1, Colon, KRAS G12V): 0.49 nM; IC50 ([2]; SK-LU-1, NSCLC, KRAS G12D): 26 nM; IC50 ([2]; SK-MEL-30, Skin, NRAS Q61K): 91.6 nM; IC50 ([2]; SNU-1, Stomach, KRAS G12D): 0.46 nM; IC50 ([2]; SW403, Colon, KRAS G12V): 4.1 nM; IC50 ([2]; SW480, Colon, KRAS G12V): 4.31 nM; IC50 ([2]; T.T, Esophageal, KRAS Amp): 5.68 nM; IC50 ([2]; TYK-nu, Ovary, NRAS G12D, Q61K): 1.14 nM; IC50 ([2]; UM-UC-3, Bladder, KRAS G12C): 2.11 nM; TGI (%) ([3]; 3 mg/kg once daily): 11%; TGI (%) ([3]; 5 mg/kg once daily): 38%; TGI (%) ([3]; 10 mg/kg once daily): 65%; IC50 [4]: ≤ 20 nM; TGI (%) ([5]; 5 mg/kg once daily): 55%; TGI (%) ([5]; 10 mg/kg once daily): 205%; TGI (%) [6]: 85%; TGI (%) ([7]; 3 mg/kg once daily): 59%; TGI (%) ([7]; 5 mg/kg once daily): 92%; TGI (%) ([7]; 10 mg/kg once daily): 110%; TGI (%) ([8]; 5 mg/kg once daily): 65%; TGI (%) ([8]; 10 mg/kg once daily): 104%
